# Reference: patent publication US10654816B2, “Compounds and compositions for treating conditions associated with NLRP activity” (NOVARTIS INFLAMMASOME RESEARCH, INC., priority 2017, dated 2020)
# System: IL-1β production in PMA-differentiated THP-1 cells
# Experiment: IL-1β production in PMA-differentiated THP-1 cells stimulated with gramicidin (hTHP-1 assay, HTRF readout; Procedures 1-3)
# Assay type: cell-based, human
# Details: Homo sapiens, THP-1, hTHP-1 assay containing 2% fetal bovine serum; average; class symbols; read-out: hTHP-1 IC50 (Average IC50 of compounds in hTHP-1 assay)
# Experimental: The Following Protocol is Suitable for Testing the Activity of the Compounds Disclosed Herein. Procedure 1: IL-1B Production in PMA-Differentiated THP-1 Cells Stimulated with Gramicidin.
# THP-1 cells were purchased from the American Type Culture Collection and sub-cultured according to instructions from the supplier. Cells were cultured in complete RPMI 1640 (containing 10% heat inactivated FBS, penicillin (100 units/ml) and streptomycin (100 μg/ml)), and maintained in log phase prior to experimental setup. Prior to the experiment, compounds were dissolved in dimethyl sulfoxide (DMSO) to generate a 30 mM stock. The compound stock was first pre-diluted in DMSO to 3, 0.34, 0.042 and 0.0083 mM intermediate concentrations and subsequently spotted using Echo550 liquid handler into an empty 384-well assay plate to achieve desired final concentration (e.g. 100, 33, 11, 3.7, 1.2, 0.41, 0.14, 0.046, 0.015, 0.0051, 0.0017 μM). DMSO was backfilled in the plate to achieve a final DMSO assay concentration of 0.37%. The plate was then sealed and stored at room temperature until required.
# THP-1 cells were treated with PMA (Phorbol 12-myristate 13-acetate) (20 ng/ml) for 16-18 hours. On the day of the experiment the media was removed and adherent cells were detached with trypsin for 5 minutes. Cells were then harvested, washed with complete RPMI 1640, spun down, and resuspended in RPMI 1640 (containing 2% heat inactivated FBS, penicillin (100 units/ml) and streptomycin (100 μg/ml). The cells were plated in the 384-well assay plate containing the spotted compounds at a density of 50,000 cells/well (final assay volume 50 μl). Cells were incubated with compounds for 1 hour and then stimulated with gramicidin (5 μM) (Enzo) for 2 hours. Plates were then centrifuged at 340 g for 5 min. Cell free supernatant (40 μL) was collected using a 96-channel PlateMaster (Gilson) and the production of IL-1β was evaluated by HTRF (cisbio). The plates were incubated for 18 h at 4° C. and read using the preset HTRF program (donor emission at 620 nm, acceptor emission at 668 nm) of the SpectraMax i3x spectrophotometer (Molecular Devices, software SoftMax 6). A vehicle only control and a dose titration of CRID3 (100-0.0017 μM) were run concurrently with each experiment.
# Procedure 2: IL-1β Production in PMA-Differentiated THP-1 Cells Stimulated with Gramicidin.
# THP-1 cells were purchased from the American Type Culture Collection and sub-cultured according to instructions from the supplier. Prior to experiments, cells were cultured in complete RPMI 1640 (containing 10% heat inactivated FBS, penicillin (100 units/ml) and streptomycin (100 μg/ml)), and maintained in log phase prior to experimental setup. Prior to the experiment THP-1 were treated with PMA (Phorbol 12-myristate 13-acetate) (20 ng/ml) for 16-18 hours. Compounds were dissolved in dimethyl sulfoxide (DMSO) to generate a 30 mM stock.
# On the day of the experiment the media was removed and adherent cells were detached with trypsin for 5 minutes. Cells were then harvested, washed with complete RPMI 1640, spun down, resuspended in RPMI 1640 (containing 2% heat inactivated FBS, penicillin (100 units/ml) and streptomycin (100 μg/ml). The cells were plated in a 384-well plate at a density of 50,000 cells/well (final assay volume 50 μl). Compounds were first dissolved in assay medium to obtain a 5× top concentration of 500 μM. 10 step dilutions (1:3) were then undertaken in assay medium containing 1.67% DMSO. 5× compound solutions were added to the culture medium to achieve desired final concentration (e.g. 100, 33, 11, 3.7, 1.2, 0.41, 0.14, 0.046, 0.015, 0.0051, 0.0017 μM). Final DMSO concentration was at 0.37%. Cells were incubated with compounds for 1 hour and then stimulated with gramicidin (5 μM) (Enzo) for 2 hours. Plates were then centrifuged at 340 g for 5 min. Cell free supernatant (40 μL) was collected using a 96-channel PlateMaster (Gilson) and the production of IL-1β was evaluated by HTRF (cisbio). […]
row,IC50,Structure (SMILES)
1,1 to 5 µM,"CC(=O)N(C)Cc1ccc(S(N)(=O)=NC(=O)Nc2c3c(cc4c2CCC4)CCC3)cc1 (single isomer, unassigned) [Example 366, (R) or (S)-N-(4-(N′-((1,2,3,5,6,7-hexahydro-s-indacen-4-yl)carbamoyl)sulfamid-imidoyl)benzyl)-N-methylacetamide]"
2,1 to 5 µM,"COC1CN(Cc2ccc(S(N)(=O)=NC(=O)Nc3c4c(cc5c3CCC5)CCC4)cc2)C1 (single isomer, unassigned) [Example 379, (R) or (S)-N′-((1,2,3,5,6,7-hexahydro-s-indacen-4-yl)carbamoyl)-4-((3-methoxyazetidin-1-yl)methyl)benzene-sulfonimidamide]"
3,1 to 5 µM,"COCCN(C)Cc1ccc(S(N)(=O)=NC(=O)Nc2c3c(cc4c2CCC4)CCC3)cc1 (single isomer, unassigned) [Example 390, (R) or (S)-N′-((1,2,3,5,6,7-hexahydro-s-indacen-4-yl)carbamoyl)-4-(((2-methoxyethyl)(meth-yl)amino)methyl)benzene-sulfonimidamide]"

# Second part, the compound before the results:
row,Structure (SMILES),IC50
1,"CC(=O)N(C)Cc1cccc(S(N)(=O)=NC(=O)Nc2c3c(cc4c2CCC4)CCC3)c1 (single isomer, unassigned) [Example 368, (R) or (S)-N-(3-(N′-((1,2,3,5,6,7-hexahydro-s-indacen-4-yl)carbamoyl)sulfamid-imidoyl)benzyl)-N-methylacetamide]",1 to 5 µM
2,"CC(C)(O)c1ncc(S(N)(=O)=NC(=O)Nc2c3c(cc4c2C(O)CC4)CCC3)s1 (single isomer, unassigned) [Example 370, (R, R/S) or (S, R/S)-N′-((3-hydroxy-1,2,3,5,6,7-hexahydro-s-indacen-4-yl)carbamoyl)-2-(2-hydroxypropan-2-yl)thiazole-5-sulfonimidamide]",0.2 to 1 µM
3,"CN1CCc2cc(S(N)(=O)=NC(=O)Nc3c4c(cc5c3CCC5)CCC4)ccc2C1 (single isomer, unassigned) [Example 395, (R) or (S)-N′-((1,2,3,5,6,7-hexahydro-s-indacen-4-yl)carbamoyl)-2-methyl-1,2,3,4-tetrahydroisoquinoline-6-sulfonimidamide]",1 to 5 µM
4,"Cn1ncc2cc(S(N)(=O)=NC(=O)Nc3c4c(cc5c3CCC5)CCC4)ccc21 (single isomer, unassigned) [Example 397, (R) or (S)-N′-((1,2,3,5,6,7-hexahydro-s-indacen-4-yl)carbamoyl)-1-methyl-1H-indazole-5-sulfonimidamide]",1 to 5 µM
5,"CC(C)c1ccc(S(N)(=O)=NC(=O)Nc2c3c(cc4c2CCC4)CCC3)cn1 (single isomer, unassigned) [Example 402, (S) or (R)-N′-((1,2,3,5,6,7-hexahydro-s-indacen-4-yl)carbamoyl)-6-isopropylpyridine-3-sulfonimidamide]",1 to 5 µM

# Same assay, conditions: Homo sapiens, THP-1, hTHP-1 assay containing 2% fetal bovine serum; average; given as bound; read-out: hTHP-1 IC50 (Average IC50 of compounds in hTHP-1 assay)
row,IC50,Structure (SMILES)
1,> 30 µM,"CC(=O)N(C)Cc1ccc(S(N)(=O)=NC(=O)Nc2c3c(cc4c2CCC4)CCC3)cc1 (single isomer, unassigned) [Example 365, (S) or (R)-N-(4-(N′-((1,2,3,5,6,7-hexahydro-s-indacen-4-yl)carbamoyl)sulfamid-imidoyl)benzyl)-N-methylacetamide]"
2,> 30 µM,"COC1CN(Cc2ccc(S(N)(=O)=NC(=O)Nc3c4c(cc5c3CCC5)CCC4)cc2)C1 (single isomer, unassigned) [Example 380, (S) or (R)-N′-((1,2,3,5,6,7-hexahydro-s-indacen-4-yl)carbamoyl)-4-((3-methoxyazetidin-1-yl)methyl)benzene-sulfonimidamide]"
3,> 30 µM,"COCCN(C)Cc1ccc(S(N)(=O)=NC(=O)Nc2c3c(cc4c2CCC4)CCC3)cc1 (single isomer, unassigned) [Example 389, (S) or (R)-N′-((1,2,3,5,6,7-hexahydro-s-indacen-4-yl)carbamoyl)-4-(((2-methoxyethyl)(meth-yl)amino)methyl)benzene-sulfonimidamide]"

# The next lines start with the compound.
row,Structure (SMILES),IC50
1,"CC(=O)N(C)Cc1cccc(S(N)(=O)=NC(=O)Nc2c3c(cc4c2CCC4)CCC3)c1 (single isomer, unassigned) [Example 367, (S) or (R)-N-(3-(N′-((1,2,3,5,6,7-hexahydro-s-indacen-4-yl)carbamoyl)sulfamid-imidoyl)benzyl)-N-methylacetamide]",> 30 µM
2,"CC(C)(O)c1ncc(S(N)(=O)=NC(=O)Nc2c3c(cc4c2C(O)CC4)CCC3)s1 (single isomer, unassigned) [Example 369, (S, R/S) or (R, R/S)-N′-((3-hydroxy-1,2,3,5,6,7-hexahydro-s-indacen-4-yl)carbamoyl)-2-(2-hydroxypropan-2-yl)thiazole-5-sulfonimidamide]",> 30 µM
3,"CNS(=O)(=NC(=O)Nc1c2c(cc3c1CCC3)CCC2)c1ccc(CN(C)C)cc1 (single isomer, unassigned) [Example 383, (R) or (S)-4-((dimethylamino)methyl)-N′-((1,2,3,5,6,7-hexahydro-s-indacen-4-yl)carbamoyl)-N-methylbenzene-sulfonimidamide]",> 30 µM
4,"CN1CCc2cc(S(N)(=O)=NC(=O)Nc3c4c(cc5c3CCC5)CCC4)ccc2C1 (single isomer, unassigned) [Example 396, (S) or (R)-N′-((1,2,3,5,6,7-hexahydro-s-indacen-4-yl)carbamoyl)-2-methyl-1,2,3,4-tetrahydroisoquinoline-6-sulfonimidamide]",> 30 µM
5,"Cn1ncc2cc(S(N)(=O)=NC(=O)Nc3c4c(cc5c3CCC5)CCC4)ccc21 (single isomer, unassigned) [Example 398, (S) or (R)-N′-((1,2,3,5,6,7-hexahydro-s-indacen-4-yl)carbamoyl)-1-methyl-1H-indazole-5-sulfonimidamide]",> 30 µM
6,"CC(C)c1ccc(S(N)(=O)=NC(=O)Nc2c3c(cc4c2CCC4)CCC3)cn1 (single isomer, unassigned) [Example 401, (R) or (S)-N′-((1,2,3,5,6,7-hexahydro-s-indacen-4-yl)carbamoyl)-6-isopropylpyridine-3-sulfonimidamide]",> 30 µM

# Same assay, conditions: hTHP-1 assay containing 2% fetal bovine serum; average; class symbols; read-out: hTHP-1 IC50 (Average IC50 of compounds in hTHP-1 assay)
row,IC50,Structure (SMILES)
1,0.2 to 1 µM,"CC(C)(O)c1ncc(S(N)(=O)=NC(=O)Nc2c3c(cc4c2C(O)CC4)CCC3)s1 (single isomer, unassigned) [Example 391, (R, R) or (R, S) or (S, S) or (S, R)-N′-((3-hydroxy-1,2,3,5,6,7-hexahydro-s-indacen-4-yl)carbamoyl)-2-(2-hydroxypropan-2-yl)thiazole-5-sulfonimidamide]"
2,0.2 to 1 µM,"CC(C)(O)c1ncc(S(N)(=O)=NC(=O)Nc2c3c(cc4c2C(O)CC4)CCC3)s1 (single isomer, unassigned) [Example 392, (R, S) or (R, R) or (S, R) or (S, S)-N′-((3-hydroxy- *1,2,3,5,6,7-hexahydro-s-indacen-4-yl)carbamoyl)-2-(2-hydroxypropan-2-yl)thiazole-5-sulfonimidamide]"

# Same assay, conditions: hTHP-1 assay containing 2% fetal bovine serum; average; given as bound; read-out: hTHP-1 IC50 (Average IC50 of compounds in hTHP-1 assay)
row,IC50,Structure (SMILES)
1,> 30 µM,"CNS(=O)(=NC(=O)Nc1c2c(cc3c1CCC3)CCC2)c1ccc(CN(C)C)cc1 (single isomer, unassigned) [Example 384, (S) or (R)-4-((dimethylamino)methyl)-N′-((1,2,3,5,6,7-hexahydro-s-indacen-4-yl)carbamoyl)-N-methylbenzene-sulfonimidamide]"
